Assay results taken from patent US10160766B1, “Benzopyranyl tetracycle compound and pharmaceutical composition having excellent anti-inflammatory effect comprising the same” (Spark Biopharma, Inc., priority 2017, dated 2018).
≈ marks a conversion by molar mass, not a printed value. Entries after “also recorded” stand apart in the source; their conditions may differ.

Columns and labels:
[1] = system: MAPK including p38, JNK, and ERK; test: Western blot of MAPK phosphorylation; type: cell-based; conditions: Raw264.7 cells
Procedure: (§1) Western Blot Analysis Protein sampling was done in 4° C. Cells were harvested in RIPA lysis buffer containing protease inhibitor cocktail and phosphatase inhibitor.
(§2) After centrifugation at 15000 rpm for 20 minutes, supernatant was transferred to new 1.5 mL tube. Protein concentration was normalized with a Micro BCA protein assay kit. The protein samples were analyzed with the Western blot procedure. Protein was transferred into PVDF membrane after SDS-PAGE. Membrane was blocked after transfer step, with 2% BSA in TBST for 1 hour in room temperature.
(§3) Primary antibodies were treated overnight at 4° C. or 1 hour in room temperature, followed by washing with TBST.
(§4) HRP-conjugated secondary antibodies were treated for 1 hour in room temperature. Antibodies were diluted in 1% BSA in TBST solution, with the concentration indicated in antibody manufacturer's protocol. After washing with TBST, the membrane was developed by Amersham ECL prime solution. Chemiluminescent signal was measured by ChemiDoc MP imaging system, and relative quantification were followed using ImageLab 4.0 software. The quantification result was processed with GraphPad Prism 5.0 software.

[2] = Liver microsomal stability, human; type: in vitro ADME; conditions: for microsomal stability Human(%): human liver microsomal
Text: (§5) The aqueous solubility, liver microsomal stabilities and PK profiles was measure for Compounds 1d, 2j, and 2l in the in vivo CLP-induced mouse models.

HMGB1 = test: Immunofluorescence of cellular localization of HMGB1 upon LPS treatment; type: cell-based; conditions: Raw264.7 cell, 20 μM compounds 1 hour prior to 500 ng/mL LPS for 2 hours
Procedure: From the results shown in Table 6, Compounds 2j (68%) and 2l (60%) had better TNF-α release inhibitory effect than that of Compound 1d (43%). Therefore, it was analyzed with the immunofluorescence whether Compounds 2j and 2l may inhibit the cellular localization of HMGB1 upon LPS treatment.
Raw264.7 cell was seeded in “Nunc Lab-Tek II” chambered coverglass and maintained for 1 day.
Then, 20 μM of compounds were treated 1 hour prior to 500 ng/mL LPS treatment for 2 hours.
After aspirating the media and washing with PBS, 200 μl of 4% paraformaldehyde solution was treated and incubated at room temperature for 20 minutes. Then, 4% paraformaldehyde solution was aspirated and the sample was washed with PBS three times.
For the permeabilization to enable antibody binding, 200 μL of methanol was treated and incubated at −20° C. for 20 minutes. Methanol was then removed and the sample was washed with PBS three times.
Sample was blocked with 2% BSA in PBS solution at room temperature for 1 hour. Then, 2% BSA in PBS solution was removed and primary antibody containing 1% BSA in PBS was treated at 4° C. overnight. Antibody concentration was optimized according to the manufacturer's protocol. Primary antibody solution was removed and the sample was washed with PBS three times. Secondary antibody containing 1% BSA in PBS solution was treated at room temperature for 1 hour.
The secondary antibody used was goat anti rabbit TRITC labeled antibody from Abcam.
After 1 hour, antibody solution was aspirated and the sample was washed with PBS three times. For nucleus staining, Hoechst 33342 was diluted in PBS, and each well was treated and incubated at room temperature for 1 hour. Hoechst 33342 was then removed and the chamber was filled with PBS, continued for imaging using DeltaVision microscope.

NF-κB p65 = NF-κB p65 immunofluorescence (migration to the nucleus); type: cell-based; conditions: Raw264.7 cells, 500 ng/mL LPS
Text: It is concluded that Compounds 1d, 2j, and 2l controlled and regulated the inflammatory signaling pathways in activated macrophages.

CLP-induced mice = test: Survival rate in CLP-induced mouse model; conditions: for survival rate / survival rate, in words: CLP mice; for survival rate: intraperitoneally, daily dose of 10 mg/kg for 21 days, start 1 hour before induction; for survival rate, in words: 10 mg/kg ip daily for 21 days, compared with vehicle and 1d groups
Text: Briefly, the CLP mouse model is established by performing a surgical procedure to the cecum, which is the organ where the resident enteric microbiome exists. Ligating the cecum and puncturing the end with a needle causes endotoxemia by inducing polymicrobial contamination in the abdominal cavity toward the circulatory system.

IL-6 = IL-6 level in CLP-induced mice (ELISA); conditions: CLP mouse model, daily dose of 10 mg/kg for 9 days starting 1 hour before CLP induction
Procedure: After 4 hours, media were transferred to new transparent 96-well plate and diluted with 1% BSA in PBS solution. ELISA assay was performed following the manufacturer's protocol.
ELISA plates (Costar, Cambridge, Mass.) were coated overnight with anti-IL-6 monoclonal antibody (eBioscience, San Diego, Calif.) at 4° C. Wells were blocked with PBS containing 1% bovine serum albumin (Sigma-Aldrich, St. Louis, Mo.) for 1 hour at room temperature (RT) and incubated with serum overnight at 4° C.
After washing, plates were incubated with biotinylated anti-IL-6 antibody (eBioscience) for 1 hour at RT. Streptavidin-conjugated horseradish peroxidase (eBioscience) is attached for 1 hour at RT. Then, Color was developed using TMB solution (eBioscience),
Absorbance was read at 450 nm with a Multiskan Ascent (Labsystems, Kennett Square, Pa.). All experiments were independently performed at least three times.

[3] = system: NO release in Raw264.7 cells; test: Griess assay, inhibition of nitric oxide release; type: cell-based; conditions: 100 ng/mL LPS and compounds 24 hours, compared with control group
Procedure: Thus, the Griess assay was used to measure nitric oxide secretion for inflammation inhibition in Raw264.7 cells.
Raw 264.7 macrophage cell was cultured in Dulbecco Modified Eagle Medium (DMEM) with 10% (v/v) fetal bovine serum (FBS) and 1% (v/v) antibiotic-anti mycotic solution.
Cell was maintained in a 100 mm cell culture dish under cell culture conditions (5% CO2 incubator at 37° C. with humidified atmosphere).
Griess assay reagent was generated prior to the assay with the following contents listed below: N-(1-naphthyl) ethylenediamine dihydrochloride, 0.1% (m/v); sulfanilamide, 1% (m/v); phosphoric acid (85%); 5% (v/v) in deionized water.
Raw 264.7 cell was seeded in transparent 96-well plate and maintained for 1 day. Media was aspirated, and each well was washed with serum free DMEM for twice. Each well was refilled with serum-free DMEM.
Then 100 ng/mL LPS and compounds were treated afterward and cultured for 24 hours. After the incubation, the supernatant culture media was transferred to new 96-well plate and mixed with 50 μL of Griess assay reagent.
Media-reagent mixture was incubated at room temperature for several minutes. Absorbance was read at 548 nm. Four wells each were used for the control experiment, LPS and DMSO (without any compounds) treated well, and DMSO-only treated well. Blank values were measured.
Blank values were measured by mixing 50 μL of Griess assay reagent with […] and 1% antibiotic-antimycotic containing DMEM.
As for the compounds in which the double bond of the tetrahydropyridazine ring in Compound 1d is moved or eliminated, the inhibition rate of NO release was measured in the same manner as in Test Example 2.
The inhibition rate of NO release for Compounds 2a to 2o prepared in Example 2 was tested in order to confirm the anti-inflammatory effect for the above compounds.

[4] = system: TNF-α secretion in Raw264.7 cell; test: ELISA of secreted TNF-α; type: cell-based; conditions: Mus musculus, LPS 100 ng/mL, compounds 10 μM, read-out: TNF-α Inhibition Rate (%)
Procedure: Thus, in order to additionally confirm the inflammation inhibitory effects of Compounds 2f to 2l, the inhibition rate of TNF-α secretion was quantitatively measured by ELISA.
Cells were treated with each Compound 1d, or 2f to 2l, and LPS for 24 hours, followed by ELISA for TNF-α present in the culture solution.
In order to measure the amount of secreted TNF-α, Raw264.7 cell was seeded in transparent 96-well plate and maintained for 1 day. Media was aspirated after 1 day and replaced to serum-free DMEM with 1% (v/v) antibiotic-antimycotic solution. LPS and compounds were treated in a final concentration of 100 ng/mL and 10 μM.
Standard curve was plotted by the dose-dependent treatment of the control TNF-α protein provided with the ELISA kit. Blank value was measured by adding solutions without TNF-α substrate.
The TNF-α secretion inhibition rate of Compounds 1d, and 2f to 2l was confirmed, when compared with control groups.

[5] = system: IL-6 secreted from Raw 264.7 cells; test: Western blot analysis of IL-6 secretion; type: cell-based; conditions: pretreatment with compounds
Procedure: From the results shown in Table 6, Compounds 2j (68%) and 2l (60%) had better TNF-α release inhibitory effect than that of Compound 1d (43%). Therefore, the inhibitory effect of IL-6 release secretion was analyzed with the Western blot analysis in order to additionally confirm the inflammation inhibitory effect of Compounds 2j and 2l.
as §1, §2, §3, §4

[6] = Liver microsomal stability, mouse; type: in vitro ADME; conditions: for microsomal stability Mouse(%): mouse liver microsomal
Text: as §5

PK profiles in mouse = type: in vivo; conditions: ip injection
Text: as §5

Raw 264.7 cell = test: WST (water-soluble tetrazolium) analysis, relative cell viability; type: cell-based; conditions: 100 ng/mL LPS and compounds 24 hours
Procedure: Relative cell viability of Compound 2a to 2o prepared in Examples 2 was measured by WST (water-soluble tetrazolium) analysis.
Raw 264.7 cell was seeded in transparent 96-well plate and maintained for 1 day.
Media was aspirated, and each well was washed with serum free DMEM for twice. Each well was refilled with serum-free DMEM. Then, 100 ng/mL LPS and compounds were treated afterward and cultured for 24 hours. After the incubation, the supernatant culture media was transferred to new 96-well plate.
Immediately after transferring media, cell-seeded wells were refilled with 100 μL of 10% FBS and 1% antibiotic-antimycotic containing DMEM. Then, 10 μL of Ez-cytox WST assay reagent was used to treat each well, following the manufacturer's protocol.
After incubating for 20 min in a 5% CO2 incubator at 37° C. with humidified atmosphere, absorbance was read at 450 nm.
Blank values were obtained from the well only treated with 10% FBS and 1% antibiotic-antimycotic containing DMEM.

Aqueous solubility = type: physicochemical
Text: as §5

SMILES	phosphorylation of MAPK including p38, JNK, and ERK [1]	microsomal stability Human(%) [2]	translocation of HMGB1 from the nucleus to the cytosol (HMGB1)	migration of NF-κB to the nucleus (NF-κB p65)	survival rate (CLP-induced mice)	NO Inhibition rate (%) [3]	inhibition at 10 µM [4]	level of IL-6 secreted (western blot) [5]	microsomal stability Mouse(%) [6]	PK data AUC (PK profiles in mouse)	PK data Cmax (PK profiles in mouse)	PK data T1/2 (PK profiles in mouse)	PK data Tmax (PK profiles in mouse)	Relative Cell Viability (%) (Raw 264.7 cell)	liver microsomal stability in humans, in words, compared with Compound 1d [2]	survival rate, in words (CLP-induced mice)	solubility in aqueous media, in words, compared with Compound 1d (Aqueous solubility)	liver microsomal stability in mice, in words, compared with Compound 1d [6]	other results
CC1(C)Oc2cc(O)ccc2C2C1=CCn1c(=O)n(-c3ccccc3)c(=O)n12 (centres unmarked) [Compound 1d, inflachromene]	clearly inhibited the phosphorylation of MAPK including p38, JNK, and ERK	0.82 ± 0.29%	inhibited the translocation of HMGB1 from the nucleus to the cytosol	inhibit the migration of NF-κB to the nucleus	about 45%	87%	43%	significantly reduced	0.41 ± 0.10%	327 ± 68.7 µg·h/mL	387 ± 122 µg/mL	3.87 ± 0.84 h	0.14 ± 0.10 h	105%					survival rate, in words, compared with vehicle-treated group (CLP-induced mice; CLP-induced mice, ip 10 mg/kg for 9 days): significantly increased; IL-6 levels in surviving mice, compared with control group (IL-6): significantly reduced
CC(=O)c1ccc(-n2c(=O)n3n(c2=O)C2C(=CC3)C(C)(C)Oc3cc(O)ccc32)cc1 (centres unmarked) [Compound 2j]	clearly inhibited the phosphorylation of MAPK including p38, JNK, and ERK	30.2 ± 2.81%	inhibited the translocation of HMGB1 from the nucleus to the cytosol	inhibit the migration of NF-κB to the nucleus	74%	93%	68%	superior inhibitory effect on IL-6 secretion; also recorded: improved the inhibition of IL-6 release	2.46 ± 1.83%	202 ± 28.1 µg·h/mL	100 ± 3.72 µg/mL	3.45 ± 1.00 h	0.25 ± 0.00 h	111%	improved liver microsomal stability	superior effects on survival rates	improved solubility in aqueous media	improved liver microsomal stability	solubility (Aqueous solubility; aqueous media): 162 ± 2.12 µg/mL (≈ 387 µM)
COc1cc(OC)cc(-n2c(=O)n3n(c2=O)C2C(=CC3)C(C)(C)Oc3cc(O)ccc32)c1 (centres unmarked) [Compound 2l]	clearly inhibited the phosphorylation of MAPK including p38, JNK, and ERK	41.2 ± 4.33%	inhibited the translocation of HMGB1 from the nucleus to the cytosol	inhibit the migration of NF-κB to the nucleus	54%	94%	60%	superior inhibitory effect on IL-6 secretion; also recorded: improved the inhibition of IL-6 release	20.2 ± 1.78%	218 ± 51.8 µg·h/mL	282 ± 87.0 µg/mL	5.00 ± 0.98 h	0.14 ± 0.10 h	121%	improved liver microsomal stability	superior effects on survival rates	improved solubility in aqueous media	improved liver microsomal stability	
